According to publication PMC6430017, “Structural and chemical insights into the covalent-allosteric inhibition of the protein kinase Akt” (Chemical Science, 2019):
Read-outs that look alike come from different tables or passages of the source.

How the values were obtained:
Assay in all cases: SelectScreen Z'LYTE kinase profiling
Assay type in all cases: biochemical
AKT2 (PKB beta) = AKT2 (PKB beta) (Homo sapiens, UniProt P31751)
BMX = molecular target: T1, BMX (Homo sapiens, UniProt P51813); details: ATP at apparent KM
T1 sequence (P51813 1-675): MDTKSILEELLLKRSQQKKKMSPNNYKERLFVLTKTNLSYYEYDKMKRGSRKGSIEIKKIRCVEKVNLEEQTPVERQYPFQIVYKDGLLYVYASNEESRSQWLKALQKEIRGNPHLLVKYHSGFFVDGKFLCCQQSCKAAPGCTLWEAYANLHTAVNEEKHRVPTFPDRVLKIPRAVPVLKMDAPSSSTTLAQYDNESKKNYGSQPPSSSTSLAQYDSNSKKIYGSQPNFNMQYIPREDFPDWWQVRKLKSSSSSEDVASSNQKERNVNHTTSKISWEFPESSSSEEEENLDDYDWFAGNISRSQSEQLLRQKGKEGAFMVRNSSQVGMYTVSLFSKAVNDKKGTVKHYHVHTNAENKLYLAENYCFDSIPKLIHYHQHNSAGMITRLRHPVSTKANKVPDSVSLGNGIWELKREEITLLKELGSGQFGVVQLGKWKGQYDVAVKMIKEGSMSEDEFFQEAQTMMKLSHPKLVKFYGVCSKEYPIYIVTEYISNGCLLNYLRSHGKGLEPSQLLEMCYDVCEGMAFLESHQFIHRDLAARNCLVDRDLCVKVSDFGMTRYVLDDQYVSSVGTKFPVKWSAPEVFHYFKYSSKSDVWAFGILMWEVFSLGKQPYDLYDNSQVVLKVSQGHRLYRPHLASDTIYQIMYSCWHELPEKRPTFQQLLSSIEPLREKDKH
Method: (§1) protein kinases at a compound concentration of 1 µM. Measurements were performed in duplicates
(§2) and at the particular apparent ATP KM of each individual kinase employing the activity based Z’LYTE®
(§3) kinase assay of the SelectScreen® Kinase Profiling Services (ThermoFisher Scientific).
(§4) kinases at a compound concentration of 1 µM. Measurements were performed in duplicates and at
(§5) the particular apparent ATP KM of each individual kinase employing the activity based Z’LYTE® kinase
(§6) assay of the SelectScreen® Kinase Profiling Services (ThermoFisher Scientific).

MAPKAPK3 = MAPKAPK3 (Homo sapiens, UniProt Q16644); details: ATP at apparent KM
Chain of MAPKAPK3 (Q16644 whole entry): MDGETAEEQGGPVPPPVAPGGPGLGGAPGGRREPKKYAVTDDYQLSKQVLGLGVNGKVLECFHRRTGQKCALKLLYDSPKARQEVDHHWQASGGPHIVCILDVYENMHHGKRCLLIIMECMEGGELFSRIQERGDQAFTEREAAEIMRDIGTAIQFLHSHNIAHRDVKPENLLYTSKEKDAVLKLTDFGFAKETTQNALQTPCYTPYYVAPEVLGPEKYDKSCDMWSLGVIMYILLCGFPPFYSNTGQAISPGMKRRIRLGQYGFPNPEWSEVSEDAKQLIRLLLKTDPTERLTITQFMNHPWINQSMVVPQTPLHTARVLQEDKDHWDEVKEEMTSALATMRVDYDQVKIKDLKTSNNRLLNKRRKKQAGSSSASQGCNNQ
Method: as §1, §2, §3, §4, §5, §6

SRC = SRC (Homo sapiens, UniProt P12931); details: ATP at apparent KM
Chain of SRC (P12931 whole entry): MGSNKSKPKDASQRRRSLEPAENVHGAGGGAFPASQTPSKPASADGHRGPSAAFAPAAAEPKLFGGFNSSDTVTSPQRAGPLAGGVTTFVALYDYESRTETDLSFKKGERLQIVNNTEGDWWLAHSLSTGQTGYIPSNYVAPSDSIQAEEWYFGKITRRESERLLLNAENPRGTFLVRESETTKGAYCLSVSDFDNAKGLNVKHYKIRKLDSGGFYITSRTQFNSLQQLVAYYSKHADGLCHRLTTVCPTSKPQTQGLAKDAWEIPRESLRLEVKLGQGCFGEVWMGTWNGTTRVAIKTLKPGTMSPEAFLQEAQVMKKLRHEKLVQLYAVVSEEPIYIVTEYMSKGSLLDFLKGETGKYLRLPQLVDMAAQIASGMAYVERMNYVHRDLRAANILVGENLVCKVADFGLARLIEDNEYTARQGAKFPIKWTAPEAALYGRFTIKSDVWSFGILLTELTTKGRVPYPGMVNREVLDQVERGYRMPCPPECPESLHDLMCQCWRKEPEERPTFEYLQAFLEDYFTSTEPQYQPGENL
Method: as §1, §2, §3, §4, §5, §6

AMPK A1/B1/G1 = AMPK A1/B1/G1 (Homo sapiens, UniProt Q13131); details: ATP at apparent KM
Chain of AMPK A1/B1/G1 (Q13131 whole entry): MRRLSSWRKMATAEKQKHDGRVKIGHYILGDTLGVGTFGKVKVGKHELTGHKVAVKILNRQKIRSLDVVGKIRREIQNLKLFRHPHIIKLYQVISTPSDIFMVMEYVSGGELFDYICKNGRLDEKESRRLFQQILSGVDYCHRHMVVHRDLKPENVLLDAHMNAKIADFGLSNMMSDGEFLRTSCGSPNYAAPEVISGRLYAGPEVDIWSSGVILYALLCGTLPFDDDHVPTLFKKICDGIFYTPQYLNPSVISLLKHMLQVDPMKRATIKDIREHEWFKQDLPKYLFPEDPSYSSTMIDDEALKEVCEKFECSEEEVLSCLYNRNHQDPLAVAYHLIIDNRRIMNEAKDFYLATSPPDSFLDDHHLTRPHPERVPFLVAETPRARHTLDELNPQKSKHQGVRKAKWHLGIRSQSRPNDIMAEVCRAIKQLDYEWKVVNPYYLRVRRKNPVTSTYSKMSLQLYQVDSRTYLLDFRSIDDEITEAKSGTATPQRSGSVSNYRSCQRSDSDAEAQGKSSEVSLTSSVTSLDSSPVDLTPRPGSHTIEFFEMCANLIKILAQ
Chain of AMPK A1/B1/G1 (Q9Y478 whole entry partner): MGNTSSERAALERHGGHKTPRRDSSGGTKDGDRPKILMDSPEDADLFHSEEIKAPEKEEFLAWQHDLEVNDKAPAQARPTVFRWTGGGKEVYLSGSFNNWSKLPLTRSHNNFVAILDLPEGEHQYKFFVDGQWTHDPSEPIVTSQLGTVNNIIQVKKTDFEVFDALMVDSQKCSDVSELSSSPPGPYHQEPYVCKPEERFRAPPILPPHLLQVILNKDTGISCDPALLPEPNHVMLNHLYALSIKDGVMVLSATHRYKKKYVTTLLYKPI
Chain of AMPK A1/B1/G1 (P54619 whole entry partner): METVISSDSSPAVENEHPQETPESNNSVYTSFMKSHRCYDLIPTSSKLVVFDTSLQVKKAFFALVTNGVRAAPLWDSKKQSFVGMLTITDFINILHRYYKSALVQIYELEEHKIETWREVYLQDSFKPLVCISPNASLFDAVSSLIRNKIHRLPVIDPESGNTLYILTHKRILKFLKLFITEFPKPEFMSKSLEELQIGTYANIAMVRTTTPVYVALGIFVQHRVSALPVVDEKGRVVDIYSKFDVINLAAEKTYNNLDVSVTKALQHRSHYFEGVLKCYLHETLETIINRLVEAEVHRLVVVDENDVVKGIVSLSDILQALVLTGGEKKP
Method: as §1, §2, §3, §4, §5, §6

PRKCB1 (PKC beta I) = PRKCB1 (PKC beta I) (Homo sapiens, UniProt P05771); details: ATP at apparent KM
Chain of PRKCB1 (PKC beta I) (P05771 whole entry): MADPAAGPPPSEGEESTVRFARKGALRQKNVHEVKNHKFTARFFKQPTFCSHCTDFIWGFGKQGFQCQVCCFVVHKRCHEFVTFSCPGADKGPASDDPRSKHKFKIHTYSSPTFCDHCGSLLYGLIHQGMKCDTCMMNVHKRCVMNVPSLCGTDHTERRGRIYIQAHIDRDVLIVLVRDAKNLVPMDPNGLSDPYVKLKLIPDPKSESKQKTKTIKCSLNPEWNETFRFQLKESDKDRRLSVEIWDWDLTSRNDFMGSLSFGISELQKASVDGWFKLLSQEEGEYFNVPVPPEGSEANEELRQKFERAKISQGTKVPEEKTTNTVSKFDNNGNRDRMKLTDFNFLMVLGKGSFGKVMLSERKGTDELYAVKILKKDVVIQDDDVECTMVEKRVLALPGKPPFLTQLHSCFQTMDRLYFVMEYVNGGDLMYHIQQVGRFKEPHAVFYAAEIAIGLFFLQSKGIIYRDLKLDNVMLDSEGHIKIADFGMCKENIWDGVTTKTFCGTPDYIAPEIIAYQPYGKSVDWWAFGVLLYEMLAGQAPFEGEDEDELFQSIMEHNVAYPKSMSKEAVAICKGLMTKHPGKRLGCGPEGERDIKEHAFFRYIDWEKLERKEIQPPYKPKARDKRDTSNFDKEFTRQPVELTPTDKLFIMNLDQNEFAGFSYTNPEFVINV
Method: as §1, §2, §3, §4, §5, §6

KIT = KIT (Homo sapiens, UniProt P10721); details: ATP at apparent KM
Chain of KIT (P10721 26-976): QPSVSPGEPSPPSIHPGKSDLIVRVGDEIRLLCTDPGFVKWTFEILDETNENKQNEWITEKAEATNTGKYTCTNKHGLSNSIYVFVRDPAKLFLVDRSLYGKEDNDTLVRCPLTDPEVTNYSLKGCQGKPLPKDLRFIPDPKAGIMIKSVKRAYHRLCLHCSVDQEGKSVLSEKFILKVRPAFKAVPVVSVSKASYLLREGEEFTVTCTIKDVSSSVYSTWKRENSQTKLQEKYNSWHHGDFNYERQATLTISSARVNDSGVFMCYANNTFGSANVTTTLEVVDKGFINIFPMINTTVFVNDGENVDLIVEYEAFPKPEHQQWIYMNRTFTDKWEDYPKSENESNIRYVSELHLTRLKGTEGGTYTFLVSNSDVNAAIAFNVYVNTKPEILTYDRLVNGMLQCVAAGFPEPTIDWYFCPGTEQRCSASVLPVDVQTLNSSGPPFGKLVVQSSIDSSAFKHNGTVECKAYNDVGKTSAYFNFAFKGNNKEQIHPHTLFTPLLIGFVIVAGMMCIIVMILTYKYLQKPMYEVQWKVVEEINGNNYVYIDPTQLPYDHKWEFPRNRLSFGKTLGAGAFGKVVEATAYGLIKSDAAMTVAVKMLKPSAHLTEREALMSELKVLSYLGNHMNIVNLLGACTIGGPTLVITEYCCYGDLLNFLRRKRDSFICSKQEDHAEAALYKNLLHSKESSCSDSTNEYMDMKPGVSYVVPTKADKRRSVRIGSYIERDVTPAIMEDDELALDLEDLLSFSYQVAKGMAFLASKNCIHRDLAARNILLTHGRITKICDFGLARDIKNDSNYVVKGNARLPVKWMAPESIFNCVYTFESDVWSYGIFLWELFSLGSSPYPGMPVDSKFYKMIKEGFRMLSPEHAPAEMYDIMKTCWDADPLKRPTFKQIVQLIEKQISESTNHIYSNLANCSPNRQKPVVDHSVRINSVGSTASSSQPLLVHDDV
Method: as §1, §2, §3, §4, §5, §6

PASK = PASK (Homo sapiens, UniProt Q96RG2); details: ATP at apparent KM
Method: as §1, §2, §3, §4, §5, §6

EPHB4 = molecular target: T2, EPHB4 (Homo sapiens, UniProt P54760); details: ATP at apparent KM
T2 sequence (P54760 16-987): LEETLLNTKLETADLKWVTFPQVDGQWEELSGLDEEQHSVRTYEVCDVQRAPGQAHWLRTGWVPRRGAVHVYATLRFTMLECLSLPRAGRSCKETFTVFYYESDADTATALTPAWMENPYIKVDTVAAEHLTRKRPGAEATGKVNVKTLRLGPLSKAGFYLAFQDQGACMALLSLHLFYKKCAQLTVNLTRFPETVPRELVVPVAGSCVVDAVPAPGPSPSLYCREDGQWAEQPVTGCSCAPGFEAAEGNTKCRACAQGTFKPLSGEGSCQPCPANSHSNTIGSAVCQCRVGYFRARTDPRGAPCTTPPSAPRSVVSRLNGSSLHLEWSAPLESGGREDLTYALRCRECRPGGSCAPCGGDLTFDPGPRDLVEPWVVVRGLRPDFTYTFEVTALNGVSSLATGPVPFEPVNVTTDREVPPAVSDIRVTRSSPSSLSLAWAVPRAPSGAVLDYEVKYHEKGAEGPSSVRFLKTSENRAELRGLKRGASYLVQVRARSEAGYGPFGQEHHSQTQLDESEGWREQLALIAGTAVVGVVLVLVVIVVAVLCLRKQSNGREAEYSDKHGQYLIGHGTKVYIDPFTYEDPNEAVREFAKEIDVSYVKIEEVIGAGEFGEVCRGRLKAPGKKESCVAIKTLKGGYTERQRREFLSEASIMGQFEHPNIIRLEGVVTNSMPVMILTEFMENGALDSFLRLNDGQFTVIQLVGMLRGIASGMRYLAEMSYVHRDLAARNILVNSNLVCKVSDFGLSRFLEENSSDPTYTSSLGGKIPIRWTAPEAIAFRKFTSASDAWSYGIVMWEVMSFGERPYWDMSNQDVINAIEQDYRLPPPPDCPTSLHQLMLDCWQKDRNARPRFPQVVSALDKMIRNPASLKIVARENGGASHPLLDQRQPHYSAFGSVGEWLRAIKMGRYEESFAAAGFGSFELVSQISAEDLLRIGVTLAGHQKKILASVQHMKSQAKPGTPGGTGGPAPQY
Method: as §1, §2, §3, §4, §5, §6

MAP4K5 (KHS1) = MAP4K5 (KHS1) (Homo sapiens, UniProt Q9Y4K4); details: ATP at apparent KM
Method: as §1, §2, §3, §4, §5, §6

CHEK2 (CHK2) = CHEK2 (CHK2) (Homo sapiens, UniProt O96017); details: ATP at apparent KM
Chain of CHEK2 (CHK2) (O96017 whole entry): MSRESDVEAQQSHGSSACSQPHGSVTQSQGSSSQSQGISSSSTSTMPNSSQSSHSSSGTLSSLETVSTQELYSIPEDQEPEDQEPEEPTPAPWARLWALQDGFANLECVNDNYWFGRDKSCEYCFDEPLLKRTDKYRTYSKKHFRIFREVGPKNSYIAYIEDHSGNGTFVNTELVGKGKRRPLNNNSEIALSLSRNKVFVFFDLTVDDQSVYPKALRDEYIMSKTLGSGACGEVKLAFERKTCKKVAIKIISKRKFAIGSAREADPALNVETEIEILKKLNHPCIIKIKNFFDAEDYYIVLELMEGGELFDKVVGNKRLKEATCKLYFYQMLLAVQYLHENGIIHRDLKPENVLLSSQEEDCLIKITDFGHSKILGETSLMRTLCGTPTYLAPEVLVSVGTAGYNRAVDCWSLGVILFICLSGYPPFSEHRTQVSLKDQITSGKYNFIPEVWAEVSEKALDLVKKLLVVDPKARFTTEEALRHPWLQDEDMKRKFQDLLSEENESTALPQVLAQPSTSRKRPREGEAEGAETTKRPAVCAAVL
Method: as §1, §2, §3, §4, §5, §6

STK3 (MST2) = molecular target: T3, STK3 (MST2) (Homo sapiens, UniProt Q13188); details: ATP at apparent KM
T3 sequence (Q13188 1-491): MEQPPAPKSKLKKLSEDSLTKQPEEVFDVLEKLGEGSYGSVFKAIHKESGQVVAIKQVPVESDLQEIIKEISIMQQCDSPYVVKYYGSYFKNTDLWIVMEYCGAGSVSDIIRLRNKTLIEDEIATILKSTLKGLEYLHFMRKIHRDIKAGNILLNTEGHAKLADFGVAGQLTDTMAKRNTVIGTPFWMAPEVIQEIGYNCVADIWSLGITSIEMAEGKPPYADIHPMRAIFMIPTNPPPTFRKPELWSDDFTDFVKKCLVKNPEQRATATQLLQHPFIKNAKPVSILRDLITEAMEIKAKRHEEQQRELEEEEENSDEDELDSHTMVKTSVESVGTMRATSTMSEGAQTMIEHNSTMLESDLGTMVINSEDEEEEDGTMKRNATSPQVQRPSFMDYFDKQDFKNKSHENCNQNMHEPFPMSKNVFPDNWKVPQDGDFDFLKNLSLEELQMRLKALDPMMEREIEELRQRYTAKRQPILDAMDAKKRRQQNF
Method: as §1, §2, §3, §4, §5, §6

PIM1 = PIM1 (Homo sapiens, UniProt P11309); details: ATP at apparent KM
Chain of PIM1 (P11309 whole entry): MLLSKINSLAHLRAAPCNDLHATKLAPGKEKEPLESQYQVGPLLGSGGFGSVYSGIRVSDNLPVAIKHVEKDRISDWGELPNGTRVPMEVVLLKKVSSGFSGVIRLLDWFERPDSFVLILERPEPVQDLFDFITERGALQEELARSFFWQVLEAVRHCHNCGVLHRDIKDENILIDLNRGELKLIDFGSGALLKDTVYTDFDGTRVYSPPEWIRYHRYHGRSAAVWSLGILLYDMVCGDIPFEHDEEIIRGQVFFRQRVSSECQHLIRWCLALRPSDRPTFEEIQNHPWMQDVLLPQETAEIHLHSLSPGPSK
Method: as §1, §2, §3, §4, §5, §6

C=CC(=O)Nc1ccc2c(c1)n(C1CCN(Cc3ccc(-c4nc5cc[nH]c(=O)c5cc4-c4ccccc4)cc3)CC1)c(=O)n2C [24b] was tested, and the inhibition at 1 µM (AKT2 (PKB beta); 1 µM, ATP at apparent KM, read-out: % inhibition) was 97%, the inhibition at 1 µM (BMX) was 28% and the inhibition at 1 µM (MAPKAPK3) was 23%. It also gave an inhibition at 1 µM (SRC) of 19%, an inhibition at 1 µM (AMPK A1/B1/G1) of 17% and an inhibition at 1 µM (PRKCB1 (PKC beta I)) of 7%. It also gave an inhibition at 1 µM (KIT) of 6%, an inhibition at 1 µM (PASK) of 4% and an inhibition at 1 µM (EPHB4) of 4%. For the same compound, the inhibition at 1 µM (MAP4K5 (KHS1)) was 3%, the inhibition at 1 µM (CHEK2 (CHK2)) was -13% and the inhibition at 1 µM (STK3 (MST2)) was -13%. It also gave an inhibition at 1 µM (PIM1) of -21%.

In the case of C=CC(=O)Nc1cccc(C(=O)NC2CCN(Cc3ccc(-c4nc5cc[nH]c(=O)c5cc4-c4ccccc4)cc3)CC2)c1 [30b], the inhibition at 1 µM (AKT2 (PKB beta)) is reported as 76%, the inhibition at 1 µM (BMX) is reported as 44% and the inhibition at 1 µM (MAPKAPK3) is reported as 23%. For the same compound, the inhibition at 1 µM (SRC) was 17%, the inhibition at 1 µM (AMPK A1/B1/G1) was 46% and the inhibition at 1 µM (PRKCB1 (PKC beta I)) was 6%. For the same compound, the inhibition at 1 µM (KIT) was 9%, the inhibition at 1 µM (PASK) was 29% and the inhibition at 1 µM (EPHB4) was 1%. For the same compound, the inhibition at 1 µM (MAP4K5 (KHS1)) was 18%, the inhibition at 1 µM (CHEK2 (CHK2)) was -12% and the inhibition at 1 µM (STK3 (MST2)) was -19%. It also gave an inhibition at 1 µM (PIM1) of -15%.

C=CC(=O)Nc1cc(NC(=O)NC2CCN(Cc3ccc(-c4nc5cc[nH]c(=O)c5cc4-c4ccccc4)cc3)CC2)ccc1Cl [compound 27] was tested, and the inhibition at 1 µM (AKT2 (PKB beta)) was 80%, the inhibition at 1 µM (BMX) was 3% and the inhibition at 1 µM (MAPKAPK3) was 23%. For the same compound, the inhibition at 1 µM (SRC) was 36%, the inhibition at 1 µM (AMPK A1/B1/G1) was 76% and the inhibition at 1 µM (PRKCB1 (PKC beta I)) was 6%. It also gave an inhibition at 1 µM (KIT) of 9%, an inhibition at 1 µM (PASK) of 61% and an inhibition at 1 µM (EPHB4) of 4%. The inhibition at 1 µM (MAP4K5 (KHS1)) was 5%, the inhibition at 1 µM (CHEK2 (CHK2)) was 1% and the inhibition at 1 µM (STK3 (MST2)) was -3%. It also gave an inhibition at 1 µM (PIM1) of -18%.
